Source: article PMC11237694, “Novel pentafluorosulfanyl-containing triclocarban analogs selectively kill Gram-positive bacteria” (Microbiology Spectrum, 2024)
≈ marks a conversion by molar mass, not a printed value.

Assays:
Assay in all cases: Planktonic susceptibility (MIC/MBC), 96-well broth microdilution
MRSA ATCC 33591 = assay type: cell-based, methicillin-resistant S. aureus; conditions: Staphylococcus aureus, MRSA reference strain; for MIC: planktonic, overnight 37°C in MHB
Experimental: (§1) All bacterial strains subjected to testing had been stored at −70°C prior to the experiment. The experiment commenced by streaking small amounts of the frozen bacterial samples onto Muller-Hinton agar (MHA) culture medium (BD Bacto, Oxoid, Basingstoke, UK Cat# X296B) and allowing for overnight incubation. Bacteria were re-cultured on MHA plates as required to confirm colony morphology and lack of contamination. Strains tested were P. aeruginosa ATCC 27853, E. coli ATCC 25922, Staphylococcus aureus ATCC 25923, MRSA ATCC 33591, S. epidermidis ATCC 12228, Klebsiella pneumoniae ATCC, P. mirabilis ATCC 35659, and 10 clinical isolates of MRSA from Foothills Hospital, Calgary, Canada. To prepare for susceptibility testing, a protocol modified from Lemire et al was used ([28]). MHB was swab-inoculated from MHA colonies and shake-incubated until turbid. Dilution of the broth with 0.9% saline was performed as necessary to match a 1.0 McFarland standard.
MIC and MBC assessments were conducted on all bacterial strains using 96-well microtiter plates. To prepare the wells for bacteria, serial dilutions of the antibacterial agents were carried out along the rows of two microtiter plates. The antibacterials were 2-fold diluted with Mueller-Hinton broth (MHB) in each column, reaching a volume of 75 µL. The 1.0 McFarland standard was diluted 15-fold in MHB, and 75 µL of inoculum was added to the wells treated with antibacterials, resulting in a total volume of 150 µL. The microtiter plates were covered and then shake-incubated overnight at 150 rpm and 37°C. MIC was determined based on visible bacterial growth. […] MBC was determined by transferring 3 µL of culture from all MIC microtiter plate wells to 147 µL of Mueller-Hinton broth in fresh plates. These plates were shake-incubated overnight at 150 rpm and 37°C, and bacterial growth was visually inspected.

[1] = tested on: Klebsiella pneumoniae ATCC; assay type: cell-based; conditions: K. pneumonia; for MIC: planktonic, overnight 37°C in MHB
Experimental: as §1
(§2) MIC and MBC assessments were conducted on all bacterial strains using 96-well microtiter plates. To prepare the wells for bacteria, serial dilutions of the antibacterial agents were carried out along the rows of two microtiter plates. The antibacterials were 2-fold diluted with Mueller-Hinton broth (MHB) in each column, reaching a volume of 75 µL. The 1.0 McFarland standard was diluted 15-fold in MHB, and 75 µL of inoculum was added to the wells treated with antibacterials, resulting in a total volume of 150 µL. The microtiter plates were covered and then shake-incubated overnight at 150 rpm and 37°C. MIC was determined based on visible bacterial growth. In cases of antibacterial opacity or ambiguous results, streaking of well cultures on MHA, overnight incubation, and subsequent comparison with controls were performed. MBC was determined by transferring 3 µL of culture from all MIC microtiter plate wells to 147 µL of Mueller-Hinton broth in fresh plates. These plates were shake-incubated overnight at 150 rpm and 37°C, and bacterial growth was visually inspected.

[2] = tested on: Staphylococcus aureus ATCC 25923; assay type: cell-based; conditions: Staphylococcus aureus, ATCC25923, S. aureus; for MIC: planktonic, overnight 37°C in MHB
Experimental: as §1, §2

P. mirabilis ATCC 35659 = assay type: cell-based; conditions: Proteus mirabilis; for MBC: ATCC35659; for MIC: ATCC35659, planktonic, overnight 37°C in MHB
Experimental: as §1, §2

SMILES	MBC (MRSA ATCC 33591) [mM]	MIC (MRSA ATCC 33591) [mM]	MBC [1] [mM]	MIC [1] [mM]	MBC [2] [mM]	MIC [2] [mM]	MBC (P. mirabilis ATCC 35659) [mM]	MIC (P. mirabilis ATCC 35659) [mM]
O=C(Nc1ccc(Cl)cc1)Nc1ccc(Cl)c(S(F)(F)(F)(F)F)c1 [EBP-41, 1-(4-chloro-3-(pentafluoro-λ^6-sulfanyl)phenyl)-3-(4-chlorophenyl)urea]	1.2 (≈ 489 µg/mL)	0.0095 (≈ 3.87 µg/mL)	> 5	> 5	1.2 (≈ 489 µg/mL)	0.038 (≈ 15.5 µg/mL)	> 5	> 5
O=C(Nc1cccc(S(F)(F)(F)(F)F)c1)Nc1cccc(S(F)(F)(F)(F)F)c1 [EBP-53, 1,3-bis(3-(Pentafluoro-λ^6-sulfanyl)phenyl) urea]	–	1.2 (≈ 557 µg/mL)	> 5	> 5	–	1.2 (≈ 557 µg/mL)	> 5	> 5
O=C(Nc1ccc(S(F)(F)(F)(F)F)cc1)Nc1cccc(S(F)(F)(F)(F)F)c1 [EBP-55, 1-(3-(pentafluoro-λ^6-sulfanyl)phenyl)-3-(4-(pentafluoro-λ^6-sulfanyl)phenyl)urea]	0.15 (≈ 69.7 µg/mL)	0.0048 (≈ 2.23 µg/mL)	> 5	> 5	78 (≈ 36200 µg/mL)	0.019 (≈ 8.82 µg/mL)	> 5	> 5
O=C(Nc1ccc(Cl)c(S(F)(F)(F)(F)F)c1)Nc1ccc(Cl)c(S(F)(F)(F)(F)F)c1 [EBP-56, 1,3-bis(4-Chloro-3-(pentafluoro-λ^6-sulfanyl)phenyl) urea]	0.61 (≈ 325 µg/mL)	0.3 (≈ 160 µg/mL)	> 5	> 5	78 (≈ 41600 µg/mL)	4.9 (≈ 2610 µg/mL)	> 5	> 5
O=C(Nc1ccc(Cl)cc1)Nc1cccc(S(F)(F)(F)(F)F)c1Cl [EBP-58, 1-(2-Chloro-3-(pentafluoro-λ^6-sulfanyl)phenyl)-3-(4-chlorophenyl)urea]	–	20 (≈ 8140 µg/mL)	> 5	> 5	–	–	> 5	> 5
O=C(Nc1ccc(S(F)(F)(F)(F)F)cc1)Nc1ccc2nnsc2c1 [EPB-21, 3-(1,2,3-benzothiadiazol-6-yl)-1-(4-pentafluoro-λ^6-sulfanyl)urea]	–	–	> 5	> 5	–	–	> 5	> 5
O=C(Nc1cccc(S(F)(F)(F)(F)F)c1)Nc1ccc2nnsc2c1 [EPB-22, 3-(1,2,3-benzothiadiazol-6-yl)-1-(3-pentafluoro-λ^6-sulfanyl)urea]	4.9 (≈ 1940 µg/mL)	0.61 (≈ 242 µg/mL)	> 5	> 5	20 (≈ 7930 µg/mL)	0.61 (≈ 242 µg/mL)	> 5	> 5
O=C(Nc1ccc2nnsc2c1)Nc1cc(S(F)(F)(F)(F)F)ccc1Cl [EPB-23, 3-(1,2,3-benzothiadiazol-6-yl)-1-(2-chloro-5-pentafluoro-λ^6-sulfanyl)urea]	39 (≈ 16800 µg/mL)	4.9 (≈ 2110 µg/mL)	> 5	> 5	20 (≈ 8620 µg/mL)	2.4 (≈ 1030 µg/mL)	> 5	> 5
